Experimental findings from patent US8895744B2, “Alfa-carboline inhibitors of NPM-ALK, RET, and Bcr-Abl” (Universita' Degli Studi di Milano-Bicocca, priority 2008, dated 2014) are described below.

The target in one series is T1, Recombinant ALK kinase (Homo sapiens, UniProt Q9UM73).
T1 construct: made in house; host or cells: Sf9 insect cells (baculovirus)
The series can be described thus: ALK kinase inhibitory activity, ELISA-based in vitro kinase assay. The note with it: purified rALK, 0.3 mM ATP, read-out: ALK IC50. The class given is biochemical. As to the method:
36. Alk Kinase Inhibitory Activity
(§1) Method: ELISA-Based In Vitro Kinase Assay
(§2) Recombinant ALK kinase was expressed in Sf9 insect cells using the pBlueBacHis2C baculovirus vector system and purified using an anion exchange Fast Flow Q-sepharose column (Amersham-Pharmacia Biotech) followed by HiTrap™-nickel affinity column (Amersham-Pharmacia Biotech). Purified ALK protein was used to screen inhibitors in the ELISA-based kinase assay. A Nunc Immuno 96 well plate was incubated overnight at 37° C. with coating solution (125 μL/well) containing ALK peptide substrate ([…]) (SEQ ID NO: 1) at various concentrations in PBS. Wells were then washed with 200 μL of wash buffer (PBS-Tween 0.05%) and left to dry for at least 2 h at 37° C. The kinase reaction was performed in the presence of 50 mM Tris pH 7.5, 5 mM MnCl2, 5 mM MgCl2, 0.3 mM ATP and purified rALK in a total volume of 100 μL/well at 30° C. for 15 min. For inhibitor testing the reaction mix was preincubated with the inhibitor or solvent control for 10 min at room temperature before transferring to the ELISA plate. After the reaction wells were washed 5 times with 200 μL of wash buffer. Phosphorylated peptide was detected using 100 μL/well of a mouse monoclonal anti-phosphotyrosine antibody (clone 4G10 Upstate Biotech Ltd) diluted 1:2000 in PBS+4% BSA. After 30 min incubation at room temperature the antibody was removed and wells were washed as described above. 100 μL of a secondary antibody (anti-mouse IgG, Horseradish Peroxidase linked whole antibody, Amersham Pharmacia Biotech) diluted 1:1000 in PBS+4% BSA was added to each well and the plate was incubated again for 30 min at room temperature before washing as above. The plate was developed using 100 μL/well TMB Substrate Solution (Endogen) and the reaction was stopped by adding an equiv.ual volume of H2SO4 0.36 M. Finally, the absorbance was read at 450 nm using an Ultrospec® 300 spectrophotometer (Amersham-Pharmacia Biotech). The concentration of the test solution showing 50% inhibition as compared with the control was expressed as IC50 (μM).

Series [1] addresses T2, Recombinant Abl T315I protein (Homo sapiens, UniProt P00519, T315I).
T2 construct: made in house; host or cells: Sf9 cells (baculovirus)
The experiment in a line: Abl T315I mutant kinase inhibitory activity, ELISA-based in vitro kinase assay. The format is biochemical. The note with it: purified Abl T315I, 0.3 mM ATP. As to the method:
as §2
37. Abl T315I Mutant Kinase Inhibitory Activity
as §1
Recombinant Abl T315I protein was expressed in Sf9 cells using the pBlueBacHis2C baculovirus expression vector. Abl T315I was purified using an anion exchange Fast Flow Q-sepharose column (Amersham-Pharmacia Biotech) followed by HiTrap™-nickel affinity column (Amersham-Pharmacia Biotech). Purified Abl T315I was used in the ELISA-based kinase assay to screen inhibitors as described above. The kinase reaction was performed in the presence of 50 mM Tris pH 7.5, 1 mM MnCl2, 5 mM MgCl2, 0.3 mM ATP, peptide substrate ([…]) (SEQ ID NO: 1) and purified Abl T315I. The concentration of the test solution showing 50% inhibition as compared with the control was expressed as IC50 (μM).

For series [2], the system named is parent untransformed BaF3 cells. The series can be described thus: Tritiated thymidine uptake cell proliferation assay, parental BaF3 (control). The format is cell-based. The conditions noted are these: Mus musculus, 3[H]-thymidine uptake, 72 h, medium with IL-3, read-out: BaF parental IC50. Here is the method: (§3) Method: Tritiated Thymidine Uptake Cell Proliferation Assay
(§4) The following procedure was used with parent untransformed BaF3 cells, BaF3 cells transformed with the oncogenic fusion protein NPM/ALK, NPM/ALK positive SUDHL-1 cells, ALK-negative U937 cells, NPM/ALK positive KARPAS-299 cells. The parent untransformed BaF3 cells and Alk-negative U937 cells are used as controls. Cells were seeded in U-bottomed 96-well plates at 10 000 cells/well in a volume of 100 μL in supplemented medium. In the case of the parent untransformed BaF3 cells, the medium was supplemented with IL-3. Serial dilutions of inhibitors were added to the appropriate wells and volumes adjusted to 200 μL. Controls were treated with the equivalent volume of vehicle, DMSO, alone. Plates were incubated at 37° C. for 72 h. ^3[H]-thymidine (1 μCi/well) was added for the last 16 h of incubation. Cells were harvested on to paper filters and ^3[H]-thymidine incorporation was measured using a β scintillation counter (1430 MicroBeta, Wallac, Turku, Finland). The 50% inhibitory concentration (IC50) was defined as the concentration of inhibitor, expressed in micromolar, that gave a 50% decrease in ^3[H]-thymidine uptake compared with controls.
as §4, with “protein bcr-abl, Abl-negative” for “protein NPM/ALK, NPM/ALK positive SUDHL-1 cells, ALK-negative”, “cells, or Bcr-abl” for “cells, NPM/ALK”, “positive LAMA-84” for “positive KARPAS-299”, “and Abl-negative” for “and Alk-negative”, “in ^3H-thymidine” for “in ^3[H]-thymidine”
as §4, with “RET-PTC2, or RET-negative 11937” for “NPM/ALK, NPM/ALK positive SUDHL-1 cells, ALK-negative U937 cells, NPM/ALK positive KARPAS-299”, “RET-negative” for “Alk-negative”

In series [3] the target is T3, BaF3 cells transformed with the oncogenic fusion protein NPM/ALK (Homo sapiens, UniProt Q9UM73).
T3 construct: fused on or other part: P06748 (Nucleophosmin)
The series can be described thus: Tritiated thymidine uptake cell proliferation assay, BaF3 NPM/ALK. The class given is cell-based. The note with it: 3[H]-thymidine uptake, 72 h; read-out: BaF NPM/ALK IC50. As to the method:
Inhibition of the proliferation of NPM/ALK positive cells
as §3, §4

The structures appear in SMILES notation.

T1 sequence (Q9UM73 19-1620): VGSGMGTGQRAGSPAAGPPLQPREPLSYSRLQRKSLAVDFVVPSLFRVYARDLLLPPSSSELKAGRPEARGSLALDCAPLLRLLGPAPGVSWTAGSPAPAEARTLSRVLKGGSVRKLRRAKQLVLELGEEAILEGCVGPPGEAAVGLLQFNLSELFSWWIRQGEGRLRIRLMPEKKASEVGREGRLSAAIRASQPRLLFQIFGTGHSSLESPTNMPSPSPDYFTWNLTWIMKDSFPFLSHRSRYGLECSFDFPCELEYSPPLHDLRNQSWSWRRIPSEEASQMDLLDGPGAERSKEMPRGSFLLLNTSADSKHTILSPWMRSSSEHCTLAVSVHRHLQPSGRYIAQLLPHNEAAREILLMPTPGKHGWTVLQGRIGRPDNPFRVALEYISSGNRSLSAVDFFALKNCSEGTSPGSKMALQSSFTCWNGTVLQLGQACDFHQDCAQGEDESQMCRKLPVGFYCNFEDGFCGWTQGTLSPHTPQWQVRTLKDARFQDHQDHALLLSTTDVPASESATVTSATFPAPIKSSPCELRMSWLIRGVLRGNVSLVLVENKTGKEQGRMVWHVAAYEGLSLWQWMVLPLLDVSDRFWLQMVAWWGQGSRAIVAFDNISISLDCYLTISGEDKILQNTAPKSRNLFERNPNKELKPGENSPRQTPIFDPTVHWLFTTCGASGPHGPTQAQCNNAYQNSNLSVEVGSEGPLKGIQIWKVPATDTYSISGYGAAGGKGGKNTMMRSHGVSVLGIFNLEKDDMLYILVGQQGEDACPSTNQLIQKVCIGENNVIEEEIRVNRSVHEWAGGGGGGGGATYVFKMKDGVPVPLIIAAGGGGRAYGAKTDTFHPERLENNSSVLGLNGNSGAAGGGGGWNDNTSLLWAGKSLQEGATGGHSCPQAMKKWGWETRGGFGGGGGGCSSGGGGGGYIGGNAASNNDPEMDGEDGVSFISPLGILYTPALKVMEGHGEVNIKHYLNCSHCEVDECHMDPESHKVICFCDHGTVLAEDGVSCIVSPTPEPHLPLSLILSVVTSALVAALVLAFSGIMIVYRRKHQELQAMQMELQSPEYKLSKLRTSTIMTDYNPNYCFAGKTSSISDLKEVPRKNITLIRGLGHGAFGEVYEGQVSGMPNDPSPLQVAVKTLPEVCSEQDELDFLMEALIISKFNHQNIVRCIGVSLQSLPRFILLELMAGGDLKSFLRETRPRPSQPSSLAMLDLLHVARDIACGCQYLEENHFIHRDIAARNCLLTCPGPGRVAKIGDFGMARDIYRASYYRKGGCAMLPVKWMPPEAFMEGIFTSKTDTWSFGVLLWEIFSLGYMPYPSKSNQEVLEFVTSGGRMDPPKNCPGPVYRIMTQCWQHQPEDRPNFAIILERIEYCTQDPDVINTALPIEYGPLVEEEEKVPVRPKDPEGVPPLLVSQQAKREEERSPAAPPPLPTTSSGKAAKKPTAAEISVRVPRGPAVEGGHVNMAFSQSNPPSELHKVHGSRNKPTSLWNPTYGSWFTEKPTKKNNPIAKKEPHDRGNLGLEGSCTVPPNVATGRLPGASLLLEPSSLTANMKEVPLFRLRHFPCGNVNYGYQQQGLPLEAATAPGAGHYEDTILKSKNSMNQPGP
T3 sequence (Q9UM73 whole entry, change not shown, the tested form may be a part): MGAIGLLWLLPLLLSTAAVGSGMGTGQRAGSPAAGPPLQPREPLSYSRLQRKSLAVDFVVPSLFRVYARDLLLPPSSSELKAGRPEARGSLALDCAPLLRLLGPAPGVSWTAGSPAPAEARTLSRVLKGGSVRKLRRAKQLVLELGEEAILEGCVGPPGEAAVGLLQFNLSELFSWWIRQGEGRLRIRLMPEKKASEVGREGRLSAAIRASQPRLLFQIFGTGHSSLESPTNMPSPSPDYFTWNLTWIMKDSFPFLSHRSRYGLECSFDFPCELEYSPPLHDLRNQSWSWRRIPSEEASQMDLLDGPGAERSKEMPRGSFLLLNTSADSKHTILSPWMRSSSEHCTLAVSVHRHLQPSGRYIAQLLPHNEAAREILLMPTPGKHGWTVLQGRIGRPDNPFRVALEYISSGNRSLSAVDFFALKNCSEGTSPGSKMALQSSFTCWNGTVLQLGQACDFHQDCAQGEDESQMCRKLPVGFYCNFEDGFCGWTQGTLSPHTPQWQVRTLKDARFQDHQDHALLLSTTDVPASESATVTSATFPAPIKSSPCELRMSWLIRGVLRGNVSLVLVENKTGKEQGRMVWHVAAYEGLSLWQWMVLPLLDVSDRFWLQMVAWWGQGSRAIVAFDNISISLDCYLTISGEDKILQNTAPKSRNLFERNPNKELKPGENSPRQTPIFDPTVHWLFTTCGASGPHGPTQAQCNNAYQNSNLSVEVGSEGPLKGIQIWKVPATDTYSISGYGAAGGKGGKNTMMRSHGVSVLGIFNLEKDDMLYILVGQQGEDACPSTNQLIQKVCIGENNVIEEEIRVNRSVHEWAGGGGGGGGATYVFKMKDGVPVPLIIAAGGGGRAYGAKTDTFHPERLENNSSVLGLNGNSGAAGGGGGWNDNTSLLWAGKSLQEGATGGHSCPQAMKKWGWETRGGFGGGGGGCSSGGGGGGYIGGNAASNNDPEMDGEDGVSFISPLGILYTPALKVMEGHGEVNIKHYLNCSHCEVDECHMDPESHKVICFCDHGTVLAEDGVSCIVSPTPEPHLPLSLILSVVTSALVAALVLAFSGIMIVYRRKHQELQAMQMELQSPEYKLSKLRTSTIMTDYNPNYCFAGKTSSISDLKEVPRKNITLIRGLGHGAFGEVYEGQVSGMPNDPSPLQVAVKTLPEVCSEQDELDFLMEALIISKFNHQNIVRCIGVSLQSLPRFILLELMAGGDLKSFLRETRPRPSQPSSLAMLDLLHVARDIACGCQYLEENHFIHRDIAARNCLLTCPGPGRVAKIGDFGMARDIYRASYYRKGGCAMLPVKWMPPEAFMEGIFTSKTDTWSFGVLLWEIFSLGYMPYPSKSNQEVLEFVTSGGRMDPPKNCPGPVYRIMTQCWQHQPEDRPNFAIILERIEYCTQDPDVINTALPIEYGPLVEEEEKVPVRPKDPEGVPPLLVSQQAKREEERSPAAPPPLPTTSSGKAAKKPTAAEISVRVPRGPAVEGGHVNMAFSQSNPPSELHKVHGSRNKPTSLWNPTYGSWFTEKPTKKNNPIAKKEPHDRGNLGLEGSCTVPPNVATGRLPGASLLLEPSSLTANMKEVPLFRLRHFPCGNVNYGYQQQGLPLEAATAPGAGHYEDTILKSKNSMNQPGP

One may read the IC50 as the concentration at which inhibition is half-maximal. With `CN1CCN(C(=O)CCC(=O)c2ccc3[nH]c4ncc(Cl)cc4c3c2)CC1` [R303, 1-(3-Chloro-9H-pyrido[2,3-b]indol-6-yl)-4-(4-methylpiperazin-1-yl)butane-1,4-dione], the IC50 at Recombinant ALK kinase is 93 ± 1 µM; in series [1] it was 87 µM; in series [2], 9.5 µM. In addition, the GI50 in series [3] is 5.1 µM.

In the case of `CCN(CC)CCSCC(=O)c1ccc2[nH]c3nc(Cl)ccc3c2c1` [R305, 1-(2-Chloro-9H-pyrido[2,3-b]indol-6-yl)-2-(N,N-diethylaminoethylsulfanyl)ethan-1-one], the concentration for half-maximal inhibition (IC50) turned out to be 17 ± 1 µM on Recombinant ALK kinase, 16 µM in series [1] and 5.5 µM in series [2]. Besides, the GI50 in series [3] turned out to be 5.2 µM.

In general, melting point refers to the temperature of the solid-liquid transition. As for `C(=C\c1ccnc2[nH]c3ccccc3c12)/c1ccccc1` [R310, 4-(2′-phenylethenyl)-9H-pyrido[2,3-b]indole], the melting point was over 220 °C.

For the molecule `Clc1cnc2[nH]c3ccc(-c4ccc(CN5CCOCC5)cc4)cc3c2c1` [R313, 3-chloro-6-(4-(morpholin-4-yl)methylphenyl)-9H-pyrido[2,3-b]indole], the values for the IC50 (at Recombinant ALK kinase; in series [1]; in series [2]) were 8.8 ± 2.7 µM, over 10 µM and 0.5 µM, respectively. In addition, the GI50 in series [3] stood at 0.64 µM.

With `O=[N+]([O-])c1cccc(Nc2ccc3c(n2)[nH]c2ccccc23)c1` [R317, N-(3-nitrophenyl)-9H-pyrido[2,3-b]indol-2-amine], the results for the IC50 (on Recombinant ALK kinase; in series [1]; in series [2]) were 8.2 ± 2.1 µM, 26 µM and 6.3 µM, respectively. Besides, in series [3], the GI50 is 2.6 µM.

In the case of `O=[N+]([O-])c1ccccc1Nc1ccc2c(n1)[nH]c1ccccc12` [R319, N-(2-nitrophenyl)-9H-pyrido[2,3-b]indol-2-amine], the IC50 on Recombinant ALK kinase came to 4.7 ± 0.2 µM; in series [1] it was 16 µM; in series [2], 44 µM. The GI50 in series [3] worked out at 11 µM.

The molecule `O=C(O)c1ccc2[nH]c3ncc(Cl)cc3c2c1` [compound 5, 3-chloro-9H-pyrido[2,3-b]indol-6-carboxylic acid] came in with a melting point of over 295 °C.

Take `Cc1ccc2c(n1)[nH]c1ccc(C(=O)O)cc12` [compound 6, 2-methyl-9H-pyrido[2,3-b]indol-6-carboxylic acid]: the melting point is over 295 °C.

In the case of `Clc1ccc2c(n1)[nH]c1ccc(Br)cc12` [compound 9, 6-bromo-2-chloro-9H-pyrido[2,3-b]indole], the melting point is over 220 °C.

The molecule `Clc1ccnc2[nH]c3ccc(Br)cc3c12` [compound 10, 6-bromo-4-chloro-9H-pyrido[2,3-b]indole] had a melting point of over 220 °C.

Molecule `O=C(O)CCC(=O)c1ccc2[nH]c3ncc(Cl)cc3c2c1` [compound 11, 4-(3-Chloro-9H-pyrido[2,3-b]indol-6-yl)-4-oxo-butyric acid] gave a melting point of 243 °C.

The molecule `O=C(O)CCC(=O)c1ccc2[nH]c3nc(Cl)ccc3c2c1` [compound 12, 4-(2-Chloro-9H-pyrido[2,3-b]indol-6-yl)-4-oxo-butyric acid] registered a melting point of 280.8 °C.

`O=S(=O)(c1ccccc1)n1c2ccc(Br)cc2c2ccc(Cl)nc21` [compound 19, 9-benzenesulfonyl-6-bromo-2-chloro-9H-pyrido[2,3-b]indole] displayed a melting point of 204 to 206 °C.

For the molecule `O=S(=O)(c1ccccc1)n1c2ccc(Br)cc2c2cc(Cl)cnc21` [compound 20, 9-benzenesulfonyl-6-bromo-3-chloro-9H-pyrido[2,3-b]indole], the melting point was determined as 242 °C.

The molecule `O=S(=O)(c1ccccc1)n1c2ccc(Br)cc2c2c(Cl)ccnc21` [compound 21, 9-benzenesulfonyl-6-bromo-4-chloro-9H-pyrido[2,3-b]indole] showed a melting point of 212 to 214 °C.

For the molecule `COc1ccc(-c2ccc3c(c2)c2cc(Cl)cnc2n3S(=O)(=O)c2ccccc2)cc1` [compound 26, 9-benzenesulfonyl-3-chloro-6-(4-methoxyphenyl)-9H-pyrido[2,3-b]indole], the melting point was over 220 °C.

Molecule `O=S(=O)(c1ccccc1)n1c2ccc(/C=C/c3ccccc3)cc2c2cc(Cl)cnc21` [compound 27, 9-benzenesulfonyl-3-chloro-6-(2′-phenylethenyl)-9H-pyrido[2,3-b]indole] displayed a melting point of 190 to 192 °C.

As for `COc1ccc(-c2ccc3c(c2)c2ccc(Cl)nc2n3S(=O)(=O)c2ccccc2)cc1` [compound 32, 9-benzenesulfonyl-2-chloro-6-(4-methoxyphenyl)-9H-pyrido[2,3-b]indole], the melting point was in the range of 176 to 178 °C.

`COc1ccc(-c2ccc3c(c2)c2c(Cl)ccnc2n3S(=O)(=O)c2ccccc2)cc1` [compound 34, 9-benzenesulfonyl-4-chloro-6-(4-methoxyphenyl)-9H-pyrido[2,3-b]indole]: the melting point lay in the range of 209 to 211 °C.

Turning to `O=S(=O)(c1ccccc1)n1c2ccc(/C=C/c3ccccc3)cc2c2c(Cl)ccnc21` [compound 35, 9-benzenesulfonyl-4-chloro-6-(2′-phenylethenyl)-9H-pyrido[2,3-b]indole], the melting point fell in the range of 216 to 218 °C.

As for `COc1ccc(-c2ccc3c(c2)c2ccc(-c4ccc(OC)cc4)nc2n3S(=O)(=O)c2ccccc2)cc1` [compound 36, 9-benzenesulfonyl-2,6-di(4-methoxyphenyl)-9H-pyrido[2,3-b]indole], the melting point is 206 to 208 °C.
